Remaining activity data for one compound are collected here from article PMC5482477, “Overexpression and characterization of two types of nitrile hydratases from Rhodococcus rhodochrous J1” (PLoS ONE, 2017).

The remaining activity is what remains of the control signal, in per cent. Low values mean little activity left, high ones much activity left.

The target of the assay is T1, H-NHase (NhhBA) (Rhodococcus rhodochrous, UniProt P21219+P21220).
T1 construct: gene nhhA; alpha10beta10, 504 kDa by gel filtration; cobalt-containing
T1 sequence (P21219 2-203): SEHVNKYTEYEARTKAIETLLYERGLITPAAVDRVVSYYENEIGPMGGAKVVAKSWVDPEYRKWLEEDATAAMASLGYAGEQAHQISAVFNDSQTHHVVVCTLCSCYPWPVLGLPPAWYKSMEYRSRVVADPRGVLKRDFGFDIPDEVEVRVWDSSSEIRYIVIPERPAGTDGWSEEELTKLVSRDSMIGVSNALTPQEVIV
T1 sequence (P21220 1-229): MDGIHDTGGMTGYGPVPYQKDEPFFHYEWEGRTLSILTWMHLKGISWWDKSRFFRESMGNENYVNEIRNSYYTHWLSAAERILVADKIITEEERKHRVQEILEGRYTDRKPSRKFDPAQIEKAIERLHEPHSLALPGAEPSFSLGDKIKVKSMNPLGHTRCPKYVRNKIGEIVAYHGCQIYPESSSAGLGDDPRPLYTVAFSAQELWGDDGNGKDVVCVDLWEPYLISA
The assay is described as follows: residual activity after […] min treatment, HPLC. It counts as biochemical.

`NC(=O)c1cccnc1` [nicotinamide] registered a remaining activity at 1.5 M of 60%.
